The test system of data set [1] is EL-4 tumor cells. The data set is described as follows: Cannabinoid-induced apoptosis in vitro (TUNEL or annexin V/PI). The format is cell-based, murine. To be noted: for induction of apoptosis (annexin/PI) compared with controls: 3 μM. On the procedure:
(§1) The cells were washed twice with PBS. […] Five thousand cells were analyzed per sample.

Data set [2] relates to Molt-4. In words: Cannabinoid-induced apoptosis in vitro (TUNEL). It counts as cell-based, human. More on the design: induction of apoptosis (TUNEL): dose or concentration left out as unconfirmed. On the procedure:
as §1

In data set [3] the test system is Jurkat. The data set is described as follows: Tumor-cell viability in vitro, trypan blue dye exclusion. It counts as cell-based, human. The method, then: (§2) Measurement of the effect of cannabinoid receptor aponistson tumor-cell viability in vitro: Tumor cells were adjusted to 1×10^6 cells/mL in medium containing 5% FCS or serum-free medium. The cells (1×10^6) were cultured in 24-well plates in 2 mL medium in the presence or absence of various concentrations of cannabinoid receptor agonists for 2 to 24 hours. Finally, the cells were harvested and washed twice in PBS, and the viable cell count was determined by trypan blue dye exclusion.

Data set [4] has as its system Molt-4. Described as above. The format is cell-based, human. The conditions noted are these: Molt-4, serum-free medium, 24 hours. The method, then:
as §2

For data set [5] the following is noted: cited from earlier work.
For data set [6], the system named is Jurkat. The data set is described as follows: Cannabinoid-induced apoptosis in vitro (TUNEL). The conditions noted are these: 5 μM JWH-015, serum-free medium, 24 hours. The format is cell-based, human. The method, then:
as §1

The subject of a further data set is thymus and spleen. The data set is described as follows: Cellularity of thymus and spleen after administration to C57BL/6 mice. The conditions noted are these: resulted from apoptosis in immune cells.
The test system of data set [7] is EL-4 tumor cells. In words: Tumor-cell viability and induction of apoptosis in vivo in EL-4 tumor-bearing mice. Set-up: species or system C57BL/6 mice. On the procedure:
Measurement of tumor-cell viability and induction of apoptosis in vivo: Groups of 5 C57BL/6 mice were injected intraperitoneally (IP) with 1×10^6 EL-4 tumor cells suspended in 0.2 mL PBS. The control mice received PBS alone. Ten days later, the mice were injected with various concentrations of THC (0, 1, 3, or 5 mg/kg […]). The mice were killed 24 hours later and the EL-4 tumor cells were harvested from the peritoneal cavity by injecting 5.0 mL PBS, followed by aspiration of the peritoneal fluid from the cavity. The contaminating red blood cells were removed with red blood lysing solution (Sigma), and the tumor cells were washed twice with PBS. The number of viable cells was determined by trypan blue dye exclusion, and apoptosis was determined using the TUNEL assay. The presence of tumor cells in the peritoneal cavity was confirmed by the ability of the cells to grow in vitro and by the phenotype (Thyl-, CD4-, CD8-).

The subject of data set [8] is LSA tumor cells. The data set is described as follows: Cannabinoid-induced apoptosis in vitro (TUNEL). It counts as cell-based, murine. To be noted: 5% FCS, 24 hours, 20 μM THC (printed 201M). On the procedure: as §1
Data set [9] has as its system P815 tumor cells. In words: Cannabinoid-induced apoptosis in vitro (TUNEL). To be noted: P815, 5% FCS, 24 hours, 20 μM THC (printed 201M). It counts as cell-based, murine. The method, then:
as §1

A further data set deals with Sup-T1. The data set is described as follows: Tumor-cell viability in vitro, trypan blue dye exclusion. The format is cell-based, human. The conditions noted are these: Sup-T1, 5 μM THC, 4 hours. On the procedure: as §2
The test system of data set [10] is EL-4 tumor cells. The description is as above. It counts as cell-based, murine. More on the design: time required to induce tumor-cell killing: dose or concentration left out as unconfirmed. The method, then:
as §2

A further data set has as its system tumor cells. In words: Dose of THC that induced apoptosis in vitro, with and without serum. It counts as cell-based. The method, then: as §1
Data set [11] deals with LSA tumor cells. The data set is described as follows: Tumor-cell viability in vitro, trypan blue dye exclusion. The format is cell-based, murine. The conditions noted are these: medium with 5% FCS, 24 hours. The method, then:
as §2

The subject of data set [12] is P815 tumor cells. Described as above. The format is cell-based, murine. To be noted: P815, medium with 5% FCS, 24 hours. The method, then: as §2
Data set [13] concerns EL-4 tumor cells. The data set is described as follows: Survival of EL-4-challenged mice. The format is in vivo, C57BL/6 mice. To be noted: 5 mg/kg IP daily for 14 days. On the procedure: Effect of THC on survival of EL-4-challenged mice: Groups of 8 C57BL/6 mice were injected […] with 1×10^6 EL-4 tumor cells in a volume of 100 μL PBS. One day following tumor injection, the mice received daily IP injections for 14 days with 5 mg/kg THC in a volume of 500 μL PBS. Control mice received injections with the vehicle control. The mice were observed daily for signs of morbidity and were euthanized. Mice that survived for more than 60 days were rechallenged with live EL-4 cells (1×10^6) and tested for their ability to reject tumor and survive.

For data set [14] the following is noted: rats injected with 50 mg/kg, within 10 hours of administration; cited from earlier work.
A further data set deals with primary ALL cells. The data set is described as follows: Viability of primary ALL cells in vitro, trypan blue dye exclusion. The format is cell-based, human. To be noted: ALL no. 1 and ALL no. 2, serum-free medium, 2 hours. An excerpt:
Primary leukemic cells: Peripheral blood samples were obtained from 2 patients diagnosed with ALL. The samples were referred to as ALL no. 1 and ALL no. 2. ALL no. 1 was obtained from a patient newly diagnosed with common acute lymphoblastic leukemia antigen (CALLA) (CD10)-positive non-B, non-T ALL. ALL no. 2 was obtained from a patient newly diagnosed with terminal deoxynucleotidyl transferase (TdT)-positive T-cell ALL. Informed consent was obtained following institutional guidelines and approval was obtained from the institutional review board of Virginia Commonwealth University. Consent was provided according to the Declaration of Helsinki.
The content of the lymphoblasts was greater than 70% as determined by flow cytometric analysis. Mononuclear cells were isolated by Ficoll-Paque density gradient centrifugation. In this study, the samples were cryopreserved and stored in liquid nitrogen before use. Viability after thawing was determined by trypan blue dye exclusion and was greater than 90%.
Measurement of the effect of cannabinoid receptor aponistson tumor-cell viability in vitro: Tumor cells were adjusted to 1×10^6 cells/mL in medium containing 5% FCS or serum-free medium. […] Finally, the cells were harvested and washed twice in PBS, and the viable cell count was determined by trypan blue dye exclusion.

The target in the next data set is CB2 receptors (Homo sapiens, UniProt P34972). To be noted: human tumor cells, pretreatment with the CB2 antagonist.
Where [15] appears, read: EL-4, serum-free medium, 4 hours.
[16] abbreviates: EL-4, serum-free medium, 5 μM, 4 hours.
The mark [17] stands for this setting: 5 mg/kg IP on day 10, harvest 24 hours later.

Chain of CB2 receptors (P34972 whole entry): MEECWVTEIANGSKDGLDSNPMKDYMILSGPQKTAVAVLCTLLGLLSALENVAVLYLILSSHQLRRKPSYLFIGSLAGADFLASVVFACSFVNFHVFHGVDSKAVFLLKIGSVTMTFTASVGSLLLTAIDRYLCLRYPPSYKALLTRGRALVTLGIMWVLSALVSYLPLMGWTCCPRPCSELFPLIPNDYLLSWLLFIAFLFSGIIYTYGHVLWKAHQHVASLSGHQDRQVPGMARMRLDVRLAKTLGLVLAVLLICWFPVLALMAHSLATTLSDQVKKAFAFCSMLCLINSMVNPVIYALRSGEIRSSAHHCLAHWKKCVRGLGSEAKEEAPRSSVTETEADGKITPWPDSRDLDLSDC
Protocol for CB2 receptors: Next, the cells were harvested, washed twice in PBS, and analyzed for the induction of apoptosis using either the terminal deoxynucleotidyl transferase-mediated end labeling (TUNEL) method or annexin V/propidium iodide (PI) method, as described elsewhere (references 14,15 incorporated herein by reference). To detect apoptosis using the TUNEL method, we washed the cells twice with PBS and fixed them with 4% p-formaldehyde for 30 minutes at room temperature. The cells were next washed with PBS, permeabilized on ice for 2 minutes, and incubated with fluorescein isothiocyanate-dUTP and TdT (Boehringer Mannheim, Indianapolis, Ind.) for 1 hour at 37° C. and 5% CO2. To detect apoptosis using the annexin V/PI method, we washed the cells twice with PBS and stained them with annexin V and PI for 20 minutes at room temperature. The cells were washed twice with PBS. The levels of apoptosis in both the TUNEL and annexin/PI assays were determined by measuring the fluorescence of the cells by flow cytometric analysis. Five thousand cells were analyzed per sample.

On to `CCCCCCC(C)(C)c1cc(O)c2c(c1)OC(C)(C)[C@@H]1CC=C(CO)C[C@@H]21` [HU-210], for which, in the data set on EL-4 tumor cells [1] (setting [15]), the “induction of apoptosis (annexin/PI) compared with controls” value (from here on “induction … compared with controls”) is recorded as “significant increase in apoptosis”.

On to `CCCn1c(C)c(C(=O)c2cccc3ccccc23)c2ccccc21` [JWH-015, (2-Methyl-1-propyl-1H-indol-3-yl)-1-naphthalenylmethanone], for which the “induction of apoptosis (TUNEL)” value with Molt-4 [2] (Molt-4, JWH-015, serum-free medium, 24 hours) is listed as “significant induction of apoptosis”; in the data set on Jurkat [6] it was “significant induction of apoptosis”. Further, the “concentration leading to a significant decrease in the number of viable tumor cells” value in the data set with Jurkat [3] (serum-free medium, 24 hours) is at least 5 µM; in the data set on Molt-4 [4], at least 5 µM. Besides, the “soluble to, in DMSO” value in data set [5] (DMSO) is listed as 10 mM. Moreover, the “soluble to, in ethanol” value in [5] (ethanol) is recorded as 25 mM.

Regarding `CCCCCc1cc(O)c2c(c1)OC(C)(C)[C@@H]1CCC(C)=C[C@@H]21` [THC, Delta-9-tetrahydrocannabinol], the “cellularity of the thymus and spleen” value in the data set with thymus and spleen is “marked decrease in the cellularity of the thymus and spleen”. The “induction of apoptosis (TUNEL)” value is given as “induced significant apoptosis” in the data set with EL-4 tumor cells [1] (EL-4, 5% FCS, 24 hours, 20 μM THC (printed 201M)); “induced significant apoptosis” in the data set on LSA tumor cells [8]; “induced significant apoptosis” with P815 tumor cells [9]. Further, the “induction … compared with controls” value with EL-4 tumor cells [1] (setting [15]) is on record as “significant increase in apoptosis”. In addition, the “induction of apoptosis (TUNEL and annexin/PI)” value in the data set on EL-4 tumor cells [1] (setting [16]) is “increase in the induction of apoptosis”. The “viable tumor-cell number in the peritoneal cavity” value in the data set on EL-4 tumor cells [7] (1 mg/kg IP on day 10, harvest 24 hours later) was “failed to cause a decrease in cellularity”; in the data set with EL-4 tumor cells [7] (3 mg/kg IP on day 10, harvest 24 hours later), “effective”; with EL-4 tumor cells [7] (setting [17]), “effective”. Besides, in the data set with EL-4 tumor cells [7] (setting [17]), the “proportion of tumor cells showing apoptosis (TUNEL)” value turned out to be 77.3%. Moreover, the “number of viable tumor cells” value is listed as “dramatic reduction in the number of viable tumor cells” in the data set on Jurkat [3] (5 μM THC, 4 hours) and “dramatic reduction in the number of viable tumor cells” in the data set with Sup-T1. Moreover, the “concentration leading to a significant reduction in the number of viable cells” value in the data set on EL-4 tumor cells [10] (EL-4, medium with 5% FCS, 24 hours) is at least 10 µM; with LSA tumor cells [11], at least 10 µM; in the data set on P815 tumor cells [12], at least 10 µM. Besides, in the data set with EL-4 tumor cells [10] (EL-4, serum-free medium), the “time required to induce tumor-cell killing” value worked out at 4 h. For the same compound, in the data set on EL-4 tumor cells [10] (setting [15]), the “concentration leading to a significant decrease in tumor-cell viability” value is 5 µM. For the same compound, the “concentration causing a significant decrease in tumor-cell viability” value in the data set with EL-4 tumor cells [10] (EL-4, serum-free medium, 12 hours) turned out to be 3 µM. For the same compound, the results for the “dose that induced apoptosis in vitro” value in the data set on tumor cells (serum-containing medium) and in the data set on tumor cells (serum-free medium) were at least 10 µM and at least 3 µM, respectively. For the same compound, the “survival of EL-4 tumor-bearing mice” value in the data set on EL-4 tumor cells [13] was “significant increase in survival”. In the data set on EL-4 tumor cells [13] (listed as TEC), the “mice that survived the tumor challenge / were cured” value is reported as “approximately 25%”. The “THC in the serum” value in data set [14] is 10 µM. Besides, in the data set with primary ALL cells, the “concentration resulting in significant reduction in viability” value was at least 5 µM.

For the compound `Cc1c(C(=O)c2cccc3ccccc23)c2cccc3c2n1[C@H](CN1CCOCC1)CO3` [WIN55212], in the data set with EL-4 tumor cells [1] (setting [15]), the “induction … compared with controls” value is listed as “no significant effect”.

On to `CCCCC/C=C\C/C=C\C/C=C\C/C=C\CCCC(=O)NCCO` [anandamide], for which, in the data set with Molt-4 [2] (Molt-4, serum-free medium, 4 hours), the “concentration leading to significant levels of apoptosis (TUNEL)” value was at least 20 µM. Further, the “induction of apoptosis (TUNEL)” value in the data set with EL-4 tumor cells [1] (setting [16]) is “slight increase in apoptosis”; in the data set with EL-4 tumor cells [1] (EL-4, serum-free medium, 10 μM, 4 hours), “significant levels of apoptosis”.

With SR144528, at CB2 receptors, the “effect of pretreatment on THC-induced apoptosis” value is on record as “partially reversed”.

The values above are taken from US20040259936A1, “Treatment of neoplasia” (priority 2001, published 2004).
